The target of test [1] is T1, Caspase-6 (Homo sapiens, UniProt P55212).
T1 sequence (P55212 whole entry): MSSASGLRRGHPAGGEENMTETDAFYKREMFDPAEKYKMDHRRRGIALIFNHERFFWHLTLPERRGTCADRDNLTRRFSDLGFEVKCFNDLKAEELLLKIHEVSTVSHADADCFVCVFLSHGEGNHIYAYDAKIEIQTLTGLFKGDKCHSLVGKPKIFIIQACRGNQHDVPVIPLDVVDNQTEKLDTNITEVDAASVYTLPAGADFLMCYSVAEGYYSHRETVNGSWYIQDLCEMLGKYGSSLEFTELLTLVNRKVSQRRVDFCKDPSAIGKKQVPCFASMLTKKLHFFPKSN
Nature of the test: human caspase-6 inhibitors, dose response, biochemical, VEID-R110 fluorescence, cherry-pick (AID 720632).

Test [2] deals with Kallikrein-7 (Homo sapiens, UniProt P49862). Nature of the test: Fluorescence Intensity-based biochemical primary high throughput dose response assay to identify activators of kallikrein-7 (K7) zymogen.
In test [3] the target is T2, Galanin receptor type 3 (Homo sapiens, UniProt O60755).
T2 sequence (O60755 whole entry): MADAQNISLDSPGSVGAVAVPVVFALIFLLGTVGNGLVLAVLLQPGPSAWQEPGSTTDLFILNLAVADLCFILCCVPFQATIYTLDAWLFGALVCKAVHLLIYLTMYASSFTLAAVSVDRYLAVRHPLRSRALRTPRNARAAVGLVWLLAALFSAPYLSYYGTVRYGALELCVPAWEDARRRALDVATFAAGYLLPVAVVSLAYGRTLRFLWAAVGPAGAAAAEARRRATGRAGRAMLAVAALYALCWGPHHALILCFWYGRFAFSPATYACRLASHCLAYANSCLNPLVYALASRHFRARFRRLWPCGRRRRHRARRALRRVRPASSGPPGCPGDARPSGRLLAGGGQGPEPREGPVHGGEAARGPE
Kind of test: Fluorescence-based cell-based primary high throughput dose response assay to identify antagonists of the Galanin Receptor 3 (GalR3). The class given is functional.

The nature of test [4]: cells. The format is functional, cell-based. As to conditions: HEK-CNG.
The target in test [5] is T3, COUP transcription factor 2 (Homo sapiens, UniProt P24468).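 Also: HEK293 cells transiently cotransfected with COUP-TFII expression vector and reporter; luciferase reporter luminescence driven by COUP-TFII from the pX2-168 reporter plasmid.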
T3 sequence (P24468 whole entry): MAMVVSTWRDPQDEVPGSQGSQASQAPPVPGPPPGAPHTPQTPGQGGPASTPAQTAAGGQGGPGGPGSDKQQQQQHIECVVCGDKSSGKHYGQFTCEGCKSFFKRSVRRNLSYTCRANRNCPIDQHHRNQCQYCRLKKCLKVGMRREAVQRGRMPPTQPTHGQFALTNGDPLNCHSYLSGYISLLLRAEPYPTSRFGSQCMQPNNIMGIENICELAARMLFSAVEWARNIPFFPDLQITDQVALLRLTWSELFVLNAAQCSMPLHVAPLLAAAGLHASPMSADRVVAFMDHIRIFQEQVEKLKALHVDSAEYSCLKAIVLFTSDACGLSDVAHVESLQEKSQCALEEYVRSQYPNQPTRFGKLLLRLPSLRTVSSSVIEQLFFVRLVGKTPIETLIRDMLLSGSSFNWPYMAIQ
Nature of the test: Luminescence-based cell-based high throughput dose response assay to identify inhibitors of COUP-TFII (NR2F2). The format is functional.

Test [6] is described as follows: inhibitors of intracellular T. cruzi replication, confirmation, NIH3T3 host cells, beta-gal luminescence (AID 2044).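 Also: intracellular parasites grown in NIH/3T3 mouse fibroblasts as host cells; luminescent beta-galactosidase reporter signal from transgenic T. cruzi replicating inside host cells; inhibitors lower the luminescence signal.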 The format is functional, cell-based.
Test [7] can be described thus: cytotoxicity toward NIH3T3 fibroblasts, dose response, counter-screen, cell-based, ATP luminescence, mouse fibroblasts (AID 2010).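 Also: cells exposed to compound for about 90 hours before reading.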 The class given is functional. For orientation: A counterscreen serves to expose hits that act by an unwanted route or on another target.
Test [8] can be described thus: cytotoxicity in HEK-293T cells, dose response, cytotoxicity control for BCR NF-kB inhibitor project, luminescence, B-cell screen hits (AID 489021).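 Also: HEK-293T cells carrying an NF-kB luciferase reporter; cells exposed to compound for about 14 hours before viability readout.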 The format is functional, cell-based.
The nature of test [9]: cytotoxicity in KRAS-transformed pancreatic duct cells, primary screen, cell-based, fluorescence, HTS (AID 431).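 Also: cell line used: HPDE-C7K.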 As to conditions: Homo sapiens. The class given is functional.
A short description of test [10]: cytotoxicity in HPDE-C7 cells, cell-based, fluorescence, HTS (AID 430). The format is functional. As to conditions: Homo sapiens.
A short description of test [11]: cells. The format is functional, cell-based.
The target of test [12] is T4, Trace amine-associated receptor 1 (Homo sapiens, UniProt Q96RJ0).
T4 sequence (Q96RJ0 whole entry): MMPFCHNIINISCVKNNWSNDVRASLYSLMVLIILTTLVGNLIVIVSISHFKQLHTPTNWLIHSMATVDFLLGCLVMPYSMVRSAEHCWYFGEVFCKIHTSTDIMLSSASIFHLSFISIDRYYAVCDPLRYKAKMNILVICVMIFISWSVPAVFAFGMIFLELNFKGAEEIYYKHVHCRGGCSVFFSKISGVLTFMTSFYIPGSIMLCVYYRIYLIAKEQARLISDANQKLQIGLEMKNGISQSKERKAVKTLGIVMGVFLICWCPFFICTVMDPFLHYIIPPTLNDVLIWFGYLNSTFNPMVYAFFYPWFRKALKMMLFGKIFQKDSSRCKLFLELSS
Nature of the test: Counterscreen for agonists of the human trace amine associated receptor 1 (hTAAR1): Fluorescence-based cell-based high throughput dose response assay to identify hTAAR1 agonist that also desensitize TAAR1 receptor response. The class given is functional.

The target of test [13] is T4, Trace amine-associated receptor 1. Kind of test: Fluorescence-based cell-based high throughput dose response assay to identify agonists of the human trace amine associated receptor 1 (TAAR1). The class given is functional.
A short description of test [14]: cells. The class given is functional, cell-based. This is another data set of the same source.
Test [15] is described as follows: inhibitors of SNCA 5'UTR-driven reporter translation, confirmation, H4 neuroglioma cells, luminescence (AID 1988). The class given is functional, cell-based.
Test [16] is described as follows: inhibitors of firefly luciferase expression or activity, dose response, H4 neuroglioma cells, luminescence (AID 1990). The format is functional, cell-based.
Test [17] deals with T5, Mannose-6-phosphate isomerase (Homo sapiens, UniProt P34949).
T5 sequence (P34949 whole entry): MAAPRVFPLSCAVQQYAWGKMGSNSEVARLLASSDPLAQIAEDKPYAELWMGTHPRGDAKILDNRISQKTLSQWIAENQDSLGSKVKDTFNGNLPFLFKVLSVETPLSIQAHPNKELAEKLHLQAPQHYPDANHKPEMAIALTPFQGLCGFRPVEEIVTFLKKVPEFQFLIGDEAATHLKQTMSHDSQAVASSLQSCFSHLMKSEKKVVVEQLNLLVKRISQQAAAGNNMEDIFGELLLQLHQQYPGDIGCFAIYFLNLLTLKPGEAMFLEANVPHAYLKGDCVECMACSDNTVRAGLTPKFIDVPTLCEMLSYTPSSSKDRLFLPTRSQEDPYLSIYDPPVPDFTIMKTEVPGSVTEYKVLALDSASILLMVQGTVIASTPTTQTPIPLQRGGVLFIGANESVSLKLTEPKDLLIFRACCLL
Kind of test: human PMI inhibitors, high substrate, primary screen, biochemical, fluorescence intensity, high mannose 6-phosphate (AID 1220).

Test [18] is described as follows: Luminescence Cell-Based Dose Response HTS to Identify Inhibitors of 5'UTR Stem-Loop Driven Prion Protein mRNA Translation in H4 Neuroglioblastoma Cells. [Related pubchem assays: 1827 (Project Summary), 1813 (Primary HTS)]. The class given is functional.
Test [19] in a line: non-specific cell cytotoxicity, dose response, cytotoxicity control for PAX8 inhibitor project, plate reader, dry powder samples (AID 743021). The class given is functional, cell-based.
The target in test [20] is Paired box protein Pax-8 (Homo sapiens, UniProt Q06710). Nature of the test: inhibitors of PAX8-driven TPO luciferase reporter, dose response, RMG-I cells, cherry-pick (AID 687027).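 Also: luciferase reporter driven by Pax8 target thyroperoxidase promoter measured by SteadyGlo luminescence.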 The class given is functional, cell-based.
Test [21] is described as follows: cells. The format is functional, cell-based. This is another data set of the same source.
Test [22] is described as follows: LGR2 antagonists, dose response, cell-based, HEK293, CRE-luciferase reporter, cherry pick, set 2 (AID 743343).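 Also: transfected cells were stimulated with diluted bursicon conditioned medium after compound addition.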 The format is functional. Background: A reporter such as luciferase makes a cellular process visible.
The nature of test [23]: HEK293 cell cytotoxicity, dose response, cytotoxicity control, plate reader, cherry-picked samples (AID 743446). The format is functional, cell-based.
The nature of test [24]: MC4R antagonists, dose response, counter-screen for LGR2 antagonist project, cell-based, plate reader, cherry pick (AID 743444).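 Also: transfected HEK 293 cells stimulated with alpha-MSH peptide; potency of inhibitors of the alpha-MSH evoked signal.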 The format is functional.
A short description of test [25]: A549 cell cytotoxicity, dose response, cytotoxicity control, plate reader, cherry-pick, antagonist series (AID 743412). The class given is functional, cell-based.
Test [26] is described as follows: cells. The class given is functional, cell-based. This is another data set of the same source.
The nature of test [27]: HepG2 cell cytotoxicity, dose response, cytotoxicity control, plate reader, cherry-pick, antagonist series (AID 743416). The format is functional, cell-based.
For test [28], the target named is Disintegrin and metalloproteinase domain-containing protein 17 (Homo sapiens, UniProt P78536). Nature of the test: ADAM17 protease inhibitors, dose response, counter-screen for ADAM10 exosite inhibitor project, biochemical, quenched FRET substrate (AID 743253).
The nature of test [29]: ADAM10 inhibitors, peptide cleavage, dose response, biochemical, QFRET (AID 743254).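 Also: ADAM10 enzyme with the DM2 quenched FRET peptide as substrate; EDANS fluorescence gain as the protease cuts the substrate; inhibitor potency against ADAM10 proteolytic activity.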
For test [30], the target named is Heat shock protein HSP 90-alpha (Homo sapiens, UniProt P07900). Nature of the test: Luminescence-based dose response biochemical high throughput screening assay for inhibitors of the Heat Shock Protein 90 (HSP90). [Related pubchem assays: 1831 (Summary AID.), 1846 (Confirmation screen.), 1789 (Primary screen.)].
Test [31] can be described thus: P. falciparum Dd2 growth inhibitors, dose response, SYBR Green, cherry-picked samples (AID 1159567). The format is functional, cell-based.

Activity calls are given as the source filed them.

Kallikrein-7, sequence (P49862 whole entry): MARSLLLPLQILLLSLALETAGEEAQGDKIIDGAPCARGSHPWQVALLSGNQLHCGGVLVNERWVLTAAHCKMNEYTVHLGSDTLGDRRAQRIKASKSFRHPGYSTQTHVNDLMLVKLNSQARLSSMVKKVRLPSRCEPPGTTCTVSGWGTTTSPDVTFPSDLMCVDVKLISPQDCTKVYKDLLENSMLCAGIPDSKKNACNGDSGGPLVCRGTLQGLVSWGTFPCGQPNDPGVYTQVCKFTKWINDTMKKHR
Disintegrin and metalloproteinase domain-containing protein 17, sequence (P78536 whole entry, the tested form may be a part): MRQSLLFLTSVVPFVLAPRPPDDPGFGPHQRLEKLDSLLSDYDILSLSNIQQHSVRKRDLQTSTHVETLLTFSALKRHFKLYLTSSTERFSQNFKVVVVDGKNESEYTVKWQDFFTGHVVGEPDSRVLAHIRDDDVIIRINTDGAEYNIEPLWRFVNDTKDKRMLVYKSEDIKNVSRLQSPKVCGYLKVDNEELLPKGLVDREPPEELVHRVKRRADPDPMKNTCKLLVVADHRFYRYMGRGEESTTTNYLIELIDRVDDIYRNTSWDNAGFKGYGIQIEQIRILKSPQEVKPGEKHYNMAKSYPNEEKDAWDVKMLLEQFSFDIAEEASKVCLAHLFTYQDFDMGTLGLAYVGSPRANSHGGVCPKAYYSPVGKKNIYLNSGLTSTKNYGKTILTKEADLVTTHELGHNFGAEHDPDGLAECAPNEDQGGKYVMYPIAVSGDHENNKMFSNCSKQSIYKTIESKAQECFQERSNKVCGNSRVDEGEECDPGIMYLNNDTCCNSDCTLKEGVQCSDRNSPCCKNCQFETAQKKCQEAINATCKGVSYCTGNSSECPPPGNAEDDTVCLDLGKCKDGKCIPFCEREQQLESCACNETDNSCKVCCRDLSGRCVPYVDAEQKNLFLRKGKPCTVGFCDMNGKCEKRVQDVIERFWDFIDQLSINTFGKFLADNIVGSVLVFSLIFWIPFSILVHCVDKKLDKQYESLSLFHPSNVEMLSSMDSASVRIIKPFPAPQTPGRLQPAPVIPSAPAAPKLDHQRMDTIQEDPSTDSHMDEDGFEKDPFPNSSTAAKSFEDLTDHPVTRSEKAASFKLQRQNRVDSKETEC
Paired box protein Pax-8, sequence (Q06710 whole entry): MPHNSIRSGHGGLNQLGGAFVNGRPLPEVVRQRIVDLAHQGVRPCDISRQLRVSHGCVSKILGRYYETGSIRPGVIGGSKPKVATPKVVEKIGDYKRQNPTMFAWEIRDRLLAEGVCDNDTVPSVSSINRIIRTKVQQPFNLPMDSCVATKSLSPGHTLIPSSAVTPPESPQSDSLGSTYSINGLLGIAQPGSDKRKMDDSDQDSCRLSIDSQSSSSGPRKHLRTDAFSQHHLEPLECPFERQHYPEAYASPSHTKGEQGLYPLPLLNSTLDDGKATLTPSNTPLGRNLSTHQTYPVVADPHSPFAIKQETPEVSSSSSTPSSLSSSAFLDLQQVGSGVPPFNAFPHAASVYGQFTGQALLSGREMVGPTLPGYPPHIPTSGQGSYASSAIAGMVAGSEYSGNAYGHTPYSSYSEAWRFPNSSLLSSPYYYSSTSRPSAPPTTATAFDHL

As usually defined, the AC50 is the concentration at which the activity in the assay is half-maximal. As to `COc1ccccc1NC(=O)C(=N\O)/C(C)=N/O`, the AC50 in [1] was 11.2 µM (active).

A word on the EC50: it is the midpoint of the concentration-response curve. With `N=c1c(C(=O)NC2CCCC2)cc2c(=O)n3ccccc3nc2n1CC1CCCO1` (stereo not given), the EC50 in test [2] was 26.8 µM (inactive).

For orientation: IC50 means the concentration at which inhibition is half-maximal. In the case of `COc1ccc(/C=N/OCC(=O)NC(c2ccccc2)c2ccccc2)cc1OC`, the values for the IC50 in [3], in test [5] and in [8] were 1.23 µM (active), 5.09 µM (active) and > 80 µM (inactive), respectively. The EC50 in test [4] was > 29.9 µM (inactive); in test [6] it was 0.56 µM (active); in [7], > 60 µM (not active).

For `O=C(CCN1CCc2ccccc2CC1)c1ccc2c(c1)OCCO2`, the EC50 is 11.3 µM (active) in test [9], 13.1 µM (active) in [10], 0.254 µM (active) in test [13] and > 29.9 µM (inactive) in [14]. Further, the results for the IC50 in test [11] and in test [12] were > 29.9 µM (inactive) and 0.828 µM (active), respectively.

On to `Cc1cccc(Cl)c1NC(=O)N1CCCN(c2nc3ccc(Cl)cc3s2)CC1`, for which the IC50 in test [3] is 2.06 µM (active); in [5], 11.3 µM (inactive). Also, the EC50 in test [4] is > 29.9 µM (inactive).

In the case of `C=CCNc1nc(NCc2ccccc2)c(C#N)c2c1CN(C)CC2`, the EC50 in [15] was > 120 µM (not active); in [16], > 120 µM (not active); in test [2] it was 13.1 µM (inactive); in test [18] it was > 120 µM (not active). In addition, the IC50 in test [17] was > 50 µM (not active).

`C[C@@H]1CCCCO[C@H](CN(C)C(=O)NC2CCCCC2)[C@H](C)CN([C@@H](C)CO)C(=O)c2cc(NS(=O)(=O)c3ccc(Cl)cc3)ccc2O1`: the values for the AC50 in test [19] and in [20] were 52.5 µM (active) and 10.5 µM (active), respectively.

As to `CN(c1cccc(Cl)c1)S(=O)(=O)c1cccc(C(=O)Nc2nc3ccccc3[nH]2)c1`, the EC50 in test [21] was 27.2 µM (active); in test [26], > 350 µM (not active). Besides, the AC50 in test [22] is 24.5 µM (active); in test [23] it was 21.1 µM (active); in [24], 19.6 µM (active); in test [25], 14 µM (active); in test [27], 22.1 µM (active).

On to `CCCCC[C@H](C)N1C[C@@H](COCc2ccccc2)Oc2cc(N3CC[C@H](O)C3)ccc2S1(=O)=O`, for which the IC50 was > 69.5 µM (inactive) in test [28] and 8.14 µM (active) in test [29].

For `CCN(CC)S(=O)(=O)c1cccc(-c2cn3cccnc3n2)c1`, the EC50 in test [2] was > 69.5 µM (inactive).

Turning to `O=C(O)c1ccc([N+](=O)[O-])c([N+](=O)[O-])c1`, the AC50 in test [1] was 12.3 µM (active).

Turning to `C#CCn1cc(/C=C2\NC(=O)NC2=O)c2ccccc21`, in test [30], the IC50 was 1.31 µM (active).

For the compound `CCCCCCCCN1C(=O)[C@@H](CC(=O)NCc2ccc(OC)c(OC)c2)C[C@@]2(C(=O)OC)C1=C[C@H](C(C)C)O[C@@H]2C1CC1`, the IC50 in test [28] was > 69.5 µM (inactive); in test [29] it was 10.8 µM (inactive).

Consider `O=C(OCc1ccccn1)c1ccc(COc2ccc3ccccc3c2)o1`, for which the IC50 in test [30] was 2.61 µM (active).

With `COc1ccc2c3c(n(C)c2c1)[C@@H](CO)N(Cc1ccccc1)CC31CCN(S(=O)(=O)c2ccc(C)cc2)CC1`, the AC50 in [31] was 6.1 µM (active).

The values above are taken from ChEMBL document CHEMBL1201862, “PubChem BioAssay data set” (2004).
